Earlier results as cited in patent publication US6534088B2, “Fibrate-statin combinations with reduced fed-fasted effects” (SkyePharma Canada Inc., priority 2001, dated 2003).

Columns and labels:
[1] = not given; remark: listed apart in the source

## COCc1c(C(C)C)nc(C(C)C)c(/C=C/[C@@H](O)C[C@@H](O)CC(=O)O)c1-c1ccc(F)cc1 [Cerivastatin]
other
  solubility in water: soluble in water
[1]; oral administration
  effect of food on absorption: not sensitive to a food effect

## CC[C@H](C)C(=O)O[C@H]1C[C@@H](C)C=C2C=C[C@H](C)[C@H](CC[C@@H]3C[C@@H](O)CC(=O)O3)[C@H]21 [Lovastatin]
other
  solubility in water: insoluble in water

## CC[C@H](C)C(=O)O[C@H]1C[C@H](O)C=C2C=C[C@H](C)[C@H](CC[C@@H](O)C[C@@H](O)CC(=O)O)[C@H]21 [Pravastatin]
other
  solubility in methanol and water: > 300 mg/mL
pH of 7.0
  partition coefficient (octanol/water): 0.59

## CC(C)(Oc1ccc(C(=O)c2ccc(Cl)cc2)cc1)C(=O)O [fenofibric acid]
[1]; metabolite in blood or plasma
  elimination half-life: approximately twenty

## CC(C)n1c(/C=C/C(O)CC(O)CC(=O)O)c(-c2ccc(F)cc2)c2ccccc21 (centres unmarked) [Fluvastatin]
other
  solubility in water: soluble in water
[1]; oral administration
  time to peak concentrations: less than 1 hour
